Test results reported in patent publication US20250098679A1, “HERBICIDAL PYRIDONE DERIVATIVES” (SYNGENTA CROP PROTECTION AG, priority 2021, published 2025).

Legend:
Assay type in all cases: in vivo
Details in all cases: evaluated after 13 days
[1] = tested on: Amaranthus retoflexus (AMARE); test: Pre-emergence Test, Amaranthus retoflexus (AMARE)
[2] = tested on: Echinochloa crus-galli (ECHCG); test: Pre-emergence Test, Echinochloa crus-galli (ECHCG)
Zea mays (ZEAMX) [3] = test: Pre-emergence Test, Zea mays (ZEAMX)
Setaria faberi (SETFA) [4] = test: Post-emergence Test, Setaria faberi (SETFA); set-up: key to percentage damage caused to the plant, SETFA (five-point scale): 5=81-100%, 4=61-80%, 3=41-60%, 2=21-40%, 1=0-20% damage
How it was run: (§1)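 Scores are percentage plant damage on a 1–5 scale (1=0-20%, 2=21-40%, 3=41-60%, 4=61-80%, 5=81-100%), read 13 days after treatment. Pots received a spray at 1000 g/ha unless otherwise stated, formulated in acetone/water (50:50) containing 0.5% Tween 20.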

[5] = tested on: Amaranthus retoflexus (AMARE); test: Post-emergence Test, Amaranthus retoflexus (AMARE); set-up: key to percentage damage caused to the plant, AMARE (five-point scale): 5=81-100%, 4=61-80%, 3=41-60%, 2=21-40%, 1=0-20% damage
How it was run: as §1

[6] = tested on: Echinochloa crus-galli (ECHCG); test: Post-emergence Test, Echinochloa crus-galli (ECHCG); set-up: key to percentage damage caused to the plant, ECHCG (five-point scale): 5=81-100%, 4=61-80%, 3=41-60%, 2=21-40%, 1=0-20% damage
How it was run: as §1

[7] = tested on: Ipomoea hederacea (IPOHE); test: Pre-emergence Test, Ipomoea hederacea (IPOHE)
[8] = tested on: Ipomoea hederacea (IPOHE); test: Post-emergence Test, Ipomoea hederacea (IPOHE); set-up: key to percentage damage caused to the plant, IPOHE (five-point scale): 5=81-100%, 4=61-80%, 3=41-60%, 2=21-40%, 1=0-20% damage
How it was run: as §1

[9] = tested on: Amaranthus palmeri (AMAPA); test: Pre-emergence Test, Amaranthus palmeri (AMAPA)
[10] = tested on: Amaranthus palmeri (AMAPA); test: Post-emergence Test, Amaranthus palmeri (AMAPA); set-up: key: 5=81-100%, 4=61-80%, 3=41-60%, 2=21-40%, 1=0-20% damage
How it was run: as §1

Setaria faberi (SETFA) [11] = test: Pre-emergence Test, Setaria faberi (SETFA)
Zea mays (ZEAMX) [12] = test: Post-emergence Test, Zea mays (ZEAMX); set-up: key to percentage damage caused to the plant, ZEAMX (five-point scale): 5=81-100%, 4=61-80%, 3=41-60%, 2=21-40%, 1=0-20% damage
How it was run: as §1

Compound | Pre-emergence Test AMARE, percentage damage caused to the plant (five-point scale) ([1]; 250 g/Ha (*)) | Pre-emergence Test ECHCG, percentage damage caused to the plant (five-point scale) ([2]; 250 g/Ha (*)) | Pre-emergence Test ZEAMX, percentage damage caused to the plant (five-point scale) (Zea mays (ZEAMX) [3]; 250 g/Ha (*)) | percentage damage caused to the plant, SETFA (five-point scale) (Setaria faberi (SETFA) [4]; 250 g/Ha) | percentage damage caused to the plant, AMARE (five-point scale) ([5]; 250 g/Ha) | percentage damage caused to the plant, ECHCG (five-point scale) ([6]; 250 g/Ha) | Pre-emergence Test IPOHE, percentage damage caused to the plant (five-point scale) ([7]; 250 g/Ha (*)) | percentage damage caused to the plant, IPOHE (five-point scale) ([8]; 250 g/Ha) | Pre-emergence Test AMAPA, percentage damage caused to the plant (five-point scale) ([9]; 250 g/Ha (*)) | percentage damage caused to the plant, AMAPA (five-point scale) ([10]; 250 g/Ha) | Pre-emergence Test SETFA, percentage damage caused to the plant (five-point scale) (Setaria faberi (SETFA) [11]; 250 g/Ha (*)) | percentage damage caused to the plant, ZEAMX (five-point scale) (Zea mays (ZEAMX) [12]; 250 g/Ha) | Pre-emergence Test AMARE, percentage damage caused to the plant (five-point scale) ([1]; 1000 g/ha) | Pre-emergence Test ECHCG, percentage damage caused to the plant (five-point scale) ([2]; 1000 g/ha) | Pre-emergence Test ZEAMX, percentage damage caused to the plant (five-point scale) (Zea mays (ZEAMX) [3]; 1000 g/ha) | percentage damage caused to the plant, SETFA (five-point scale) (Setaria faberi (SETFA) [4]; 1000 g/ha) | percentage damage caused to the plant, AMARE (five-point scale) ([5]; 1000 g/ha) | percentage damage caused to the plant, ECHCG (five-point scale) ([6]; 1000 g/ha) | Pre-emergence Test IPOHE, percentage damage caused to the plant (five-point scale) ([7]; 1000 g/ha) | percentage damage caused to the plant, IPOHE (five-point scale) ([8]; 1000 g/ha) | also measured
CCn1c(Cn2ncc(Cl)c2C2CC2)cc(=O)c(C(=O)O)c1-c1ccc(Cl)c(Cl)c1 [Compound 93, 6-[(4-chloro-5-cyclopropyl-pyrazol-1-yl)methyl]-2-(3,4-dichlorophenyl)-1-ethyl-4-oxo-pyridine-3-carboxylic acid] | 1 (1=0-20%) | 0 | 0 | 1 (1=0-20%) | 1 (1=0-20%) | 2 (2=21-40%) | 0 | 1 (1=0-20%) | 2 (2=21-40%) | 1 (1=0-20%) | 0 | 1 (1=0-20%) |  |  |  |  |  |  |  |  | 
CCn1c(Cn2ncnc2OC)cc(=O)c(C(=O)O)c1-c1ccc(Cl)c(Cl)c1 [Compound 124, 2-(3,4-dichlorophenyl)-1-ethyl-6-[(5-methoxy-1,2,4-triazol-1-yl)methyl]-4-oxo-pyridine-3-carboxylic acid] | 1 (1=0-20%) | 0 | 0 | 2 (2=21-40%) | 1 (1=0-20%) | 4 (4=61-80%) | 0 | 0 | 1 (1=0-20%) | 0 | 0 | 1 (1=0-20%) |  |  |  |  |  |  |  |  | 
CCn1c(Cn2nc(Cl)cc2C(F)(F)F)cc(=O)c(C(=O)O)c1-c1ccc(Cl)c(Cl)c1 [Compound 104, 6-[[3-chloro-5-(trifluoromethyl)pyrazol-1-yl]methyl]-2-(3,4-dichlorophenyl)-1-ethyl-4-oxo-pyridine-3-carboxylic acid] | 1 (1=0-20%) | 5 (5=81-100%) | 2 (2=21-40%) | 4 (4=61-80%) | 3 (3=41-60%) | 4 (4=61-80%) | 1 (1=0-20%) | 4 (4=61-80%) | 1 (1=0-20%) | 3 (3=41-60%) | 5 (5=81-100%) | 4 (4=61-80%) | 1 (1=0-20%) | 5 (5=81-100%) | 5 (5=81-100%) | 4 (4=61-80%) | 4 (4=61-80%) | 4 (4=61-80%) | 4 (4=61-80%) | 3 (3=41-60%) | Pre-emergence Test AMAPA, percentage damage caused to the plant (five-point scale) ([9]; 1000 g/ha): 1 (1=0-20%); percentage damage caused to the plant, AMAPA (five-point scale) ([10]; 1000 g/ha): 4 (4=61-80%); Pre-emergence Test SETFA, percentage damage caused to the plant (five-point scale) (Setaria faberi (SETFA) [11]; 1000 g/ha): 5 (5=81-100%); percentage damage caused to the plant, ZEAMX (five-point scale) (Zea mays (ZEAMX) [12]; 1000 g/ha): 4 (4=61-80%)
CCn1c(Cn2cncc2C(F)(F)F)cc(=O)c(C(=O)O)c1-c1ccc(Cl)c(Cl)c1 [Compound 16, 2-(3,4-dichlorophenyl)-1-ethyl-4-oxo-6-[[5-(trifluoromethyl)imidazol-1-yl]methyl]pyridine-3-carboxylic acid] | 1 (1=0-20%) | 1 (1=0-20%) | 0 | 2 (2=21-40%) | 4 (4=61-80%) | 2 (2=21-40%) | 0 | 2 (2=21-40%) | 3 (3=41-60%) | 4 (4=61-80%) | 0 | 0 | 4 (4=61-80%) | 4 (4=61-80%) | 0 | 5 (5=81-100%) | 1 (1=0-20%) | 4 (4=61-80%) | 0 | 5 (5=81-100%) | Pre-emergence Test AMAPA, percentage damage caused to the plant (five-point scale) ([9]; 1000 g/ha): 5 (5=81-100%); percentage damage caused to the plant, AMAPA (five-point scale) ([10]; 1000 g/ha): 5 (5=81-100%); Pre-emergence Test SETFA, percentage damage caused to the plant (five-point scale) (Setaria faberi (SETFA) [11]; 1000 g/ha): 1 (1=0-20%); percentage damage caused to the plant, ZEAMX (five-point scale) (Zea mays (ZEAMX) [12]; 1000 g/ha): 4 (4=61-80%)
CCn1c(Cn2cc3c(n2)CCCC3)cc(=O)c(C(=O)O)c1-c1ccc(Cl)c(Cl)c1 [Compound 101, 2-(3,4-dichlorophenyl)-1-ethyl-4-oxo-6-(4,5,6,7-tetrahydroindazol-2-ylmethyl)pyridine-3-carboxylic acid] |  |  |  | 0 | 0 | 1 (1=0-20%) |  | 0 |  | 0 |  | 0 | 1 (1=0-20%) | 0 | 1 (1=0-20%) | 0 | 0 | 0 | 2 (2=21-40%) | 3 (3=41-60%) | Pre-emergence Test AMAPA, percentage damage caused to the plant (five-point scale) ([9]; 1000 g/ha): 2 (2=21-40%); percentage damage caused to the plant, AMAPA (five-point scale) ([10]; 1000 g/ha): 0; Pre-emergence Test SETFA, percentage damage caused to the plant (five-point scale) (Setaria faberi (SETFA) [11]; 1000 g/ha): 1 (1=0-20%); percentage damage caused to the plant, ZEAMX (five-point scale) (Zea mays (ZEAMX) [12]; 1000 g/ha): 0
CCn1c(Cn2nc(C)cc2Cl)cc(=O)c(C(=O)O)c1-c1ccc(Cl)c(Cl)c1 [Compound 17, 6-[(5-chloro-3-methyl-pyrazol-1-yl)methyl]-2-(3,4-dichlorophenyl)-1-ethyl-4-oxo-pyridine-3-carboxylic acid] |  |  |  | 3 (3=41-60%) | 5 (5=81-100%) | 4 (4=61-80%) |  | 3 (3=41-60%) |  | 5 (5=81-100%) |  | 2 (2=21-40%) | 2 (2=21-40%) | 4 (4=61-80%) | 2 (2=21-40%) | 4 (4=61-80%) | 3 (3=41-60%) | 4 (4=61-80%) | 3 (3=41-60%) | 5 (5=81-100%) | Pre-emergence Test AMAPA, percentage damage caused to the plant (five-point scale) ([9]; 1000 g/ha): 5 (5=81-100%); percentage damage caused to the plant, AMAPA (five-point scale) ([10]; 1000 g/ha): 5 (5=81-100%); Pre-emergence Test SETFA, percentage damage caused to the plant (five-point scale) (Setaria faberi (SETFA) [11]; 1000 g/ha): 4 (4=61-80%); percentage damage caused to the plant, ZEAMX (five-point scale) (Zea mays (ZEAMX) [12]; 1000 g/ha): 3 (3=41-60%)
